The values that follow come from patent publication US11433143B2, “Nano-enabled immunotherapy in cancer” (The Regents of the University of California, priority 2017, dated 2022).

The test system of one data set is mTOR signaling. In words: Western blot of mTOR signaling (P-S6K phosphorylation) in 4T1 cells in tryptophan-deficient DMEM. The class given is cell-based, mouse. Particulars: 3 h, vs free IND. (In general: A western blot detects proteins with antibodies after separation by electrophoresis.)
The test system of data set [1] is 4T1 cells. As to the kind of experiment: ICD screening of chemo agents in 4T1 cells (CRT expression, HMGB1 release). Particulars: multi-parameter cellular screening. Type of data set: cell-based, mouse. From the text:
One possible approach is to use chemotherapy to induce immunogenic cell death or ICD.

Another data set concerns KPC tumor. In words: Vaccination with drug-treated dying KPC cells, live KPC challenge on contralateral side. Type of data set: in vivo, mouse. As to conditions: for KPC tumor growth in the contralateral flank (spaghetti curves) / KPC tumor size on the contralateral side: 2 rounds of vaccination one week apart; for KPC tumor size on the contralateral side: tumors collected on day 26. On the procedure: FIG. 6. […] DACHPt, 500 μM) for 24 h. HMBG1 release was measured using ELISA. Panel B) Animal experimentation using 2 rounds of vaccination one week apart, followed by injecting live KPC cells SC on the contralateral side. The details of the animal vaccination experiment are provided in the methods section. Tumors were collected on day 26 for size measurement and IHC analysis. Panel C) Tumor size measurement on the contralateral side. Panel D) Explanted tumor at the contralateral side. Panel E) Spaghetti curves to show KPC tumor growth in the contralateral flank. Panel F) Tumor collection was performed after euthanizing the animal to conduct IHC.
Animal experiments were performed using two rounds of vaccination one week apart, followed by injecting live KPC cells SC on the contralateral side (FIG. 6, panel B). Tumors were collected on day 26 for size measurement and IHC analysis.
Tumor collection was performed after euthanizing the animals to conduct IHC. IHC staining of CD8 and Foxp3 T cells was used to calculate CD8/FoxP3 T cell ratio in each group (see, e.g., FIG. 6, panel F).

Data set [2] relates to KPC pancreatic cancer cells. As to the kind of experiment: Induction of ICD marker CRT (flow cytometry) and HMGB1 release (ELISA) in cultured KPC pancreatic cancer cells. The class given is cell-based, mouse. As to conditions: 24 h; for induction of the ICD marker CRT: DOX 20 μM, OX 500 μM, activated DOX (DACHPt) 500 μM, flow cytometry; for HMGB1 release: ELISA. As to the method:
FIG. 6. Panel A) Flow cytometry experiment showing the induction of the ICD marker, CRT, in cultured KPC pancreatic cancer cells in the presence of PBS, DOX (20 μM), OX (500 μM), and activated […] (a.k.a. DACHPt, 500 μM) for 24 h. HMBG1 release was measured using ELISA. Panel B) Animal experimentation using 2 rounds of vaccination one week apart, followed by injecting live KPC cells SC on the contralateral side. The details of the animal vaccination experiment are provided in the methods section. Tumors were collected on day 26 for size measurement and IHC analysis. Panel C) Tumor size measurement on the contralateral side. Panel D) Explanted tumor at the contralateral side. Panel E) Spaghetti curves to show KPC tumor growth in the contralateral flank. Panel F) Tumor collection was performed after euthanizing the animal to conduct IHC. IHC staining of CD8 and Foxp3 T cells was used to calculate CD8/FoxP3 T cells ratio in each group. *p<0.05; **p<0.01
ICD is a modified form of apoptosis that can be used to initiate an effective immune response against endogenous tumor antigens (Kroemer et al. (2013) Ann. Rev. Immunol., 31: 51-72).^1 Since this model was 1st proposed against the backdrop of a select number of cancer drugs (Id.), we focused on the use of OX, because it is FDA-approved for PDAC treatment. As a component of the FOLFIRINOX regimen (in combination with irinotecan, 5-FU and folinic acid). For comparison, we also included the anthracycline antibiotic, DOX, as a positive control and cisplatin (Cis) as a negative control for the screening of PDAC cell lines, using cell surface CRT expression (Obeid et al. (2017) Nat. Med., 13(1): 54-61; Casares et al. (2005) J. Exp. Med. 202(12): 1691-1701; Fucikova et al. (2011) Canc. Res. 71(14): 4821-4833; Tesniere et al. (2010) Oncogene, 29(4): 482-491; Galluzzi et al. (2012) Oncogene, 31(15): 1869-1883; Martins et al. (2011) Oncogene, 30(10): 1147-1158). CRT is an endoplasmic reticulum (ER) stress protein that translocates to the surface membrane of cancer cells undergoing ICD (Obeid et al. (2017) Nat. Med., 13(1): 54-61; Fucikova et al. (2011) Canc. Res. 71(14): 4821-4833). Screening for CRT expression was performed in murine KPC cells, derived from a spontaneous tumor that developed in a transgenic Kras^LSL-G12D/+/Trp53^LSL-R172H/+/Pdx-1-Cre (KPC) mouse (Hingorani et al. (2005) Cancer cell, 7(5): 469-483).
The KPC model recapitulates many of disease features of human PDAC, including oncogene expression, development of a robust cancer stroma, extensive local invasion and distant metastases (Tones et al. (2013) PloS one, 8(11): e80580; Tseng et al. (2010) Clin. Canc. Res. 16(14): 3684-3695). DOX and OX and activated DOX induced the ICD marker CRT in cultured KPC pancreatic cancer cells (FIG. 6, panel A). […]

The nature of data set [3]: PK characteristics of free IND. As to conditions: in vivo.
A further data set can be described thus: Solubility and log P. The class given is physicochemical.
Data set [4] has as its system 4T1 cells. In words: CRT induction by liposomes in 4T1 cells (flow cytometry). In general terms: Flow cytometry measures light scatter and fluorescence of single cells or particles in a stream.
Source text: Panel B) All the particles were fully characterized abiotically and biotically.
Data set [5] in a line: Determination of MTD doses in normal mice. As to conditions: mouse, in vivo, single IV administration. On the procedure:
FIG. 26. Panel A) Determination of MTD doses for free MTX and liposomal MTX in normal mice. MTD doses for free MTX and liposomal MTX were 3 and 15 mg/kg for single IV administration. Due to the high MTD of liposomal MTX, we tested the efficacy of the MTX liposome at low dose (1 mg/Kg×3 times) and high dose (3 mg/Kg×3 times). Panel B) Pilot tumor size measurement in 4T1 orthotopic tumor-bearing mice (n=6) receiving IV free drug or MTX-only liposome. For free drug treatment, we have included 2 two schedules namely single IV at 3 mg/kg at Day 8 or IV injections at 1 mg/kg at Day 8, 11 and 14. Since MTX liposome has a 5× higher MTD dose, the tumor mice received single IV at 3 mg/kg at Day 8 or IV injections at Day 8, 11 and 14.

The conditions of data set [6]: cited from earlier work.

On to 16:0 LysoPC-indoximod [IND-PL], for which the “effect on mTOR signaling (phosphorylation of P-S6K)” value in the data set with mTOR signaling is recorded as “enhanced effect”.
For the molecule `O=c1[nH]cc(F)c(=O)[nH]1` [5-FU, 5-fluorouracil], the “ICD induction (calreticulin expression, release of HMGB1)” value (shortened to “ICD induction”) with 4T1 cells [1] is recorded as “failed to induce the same effect”.
On to `COc1cccc2c1C(=O)c1c(O)c3c(c(O)c1C2=O)C[C@@](O)(C(=O)CO)C[C@@H]3O[C@H]1C[C@H](N)[C@H](O)[C@H](C)O1` [DOX, doxorubicin], for which, in the data set on KPC tumor, the “KPC tumor growth in the contralateral flank (spaghetti curves)” value is given as “decrease” and the “KPC tumor size on the contralateral side” value is on record as “significant reduction”. In [2], the “induction of the ICD marker CRT” value is “induced” and the HMGB1 release entry is “increased”. In the data set with 4T1 cells [1], the “ICD induction” value was “can induce”.
With `Cn1cc(C[C@@H](N)C(=O)O)c2ccccc21` [Free IND, 1-methyl-D-tryptophan], the PK characteristics entry in data set [3] is given as “unfavorable PK characteristics”. Also, the “water solubility” value in “Solubility and log P” was “relatively water insoluble”.
Regarding `O=C1c2c(O)ccc(O)c2C(=O)c2c(NCCNCCO)ccc(NCCNCCO)c21` [MTX, mitoxantrone], in the data set with 4T1 cells [4], the “CRT induction / ICD response in 4T1 cells (FIG. 31 panel B)” value is “generation of an ICD response”. In [5], this molecule yielded an MTD of 3 mg/kg. In the data set with 4T1 cells [1], the “ICD induction” value is listed as “can induce”.
In the case of `O=C1[O][Pt]2([NH][C@@H]3CCCC[C@H]3[NH]2)[O]C1=O` [OX, oxaliplatin], in the data set with KPC tumor, the “KPC tumor growth in the contralateral flank (spaghetti curves)” value is on record as “decrease” and the “KPC tumor size on the contralateral side” value is listed as “significant reduction”. Also, the “CD8+/Foxp3+ ratio” value in the data set on KPC tumor (local and systemic tumor sites) was “capable of increasing”. Further, in data set [2], the “induction of the ICD marker CRT” value is “induced” and the HMGB1 release result was “increased”.
Consider `N.N.[Cl][Pt][Cl]` [cisplatin], for which the “ICD induction” value in the data set on 4T1 cells [1] was “failed to induce the same effect”.
`NS(=O)(=O)NCCNc1nonc1C(=NO)Nc1ccc(F)c(Br)c1` [epacadostat]: the solubility in ethanol in [6] was > 20 mg/mL.
`CC(=O)O[C@H]1C(=O)[C@@]2(C)[C@H]([C@H](OC(=O)c3ccccc3)[C@]3(O)C[C@H](OC(=O)[C@H](O)[C@@H](NC(=O)c4ccccc4)c4ccccc4)C(C)=C1C3(C)C)[C@]1(OC(C)=O)CO[C@@H]1C[C@@H]2O` [paclitaxel]: the “ICD induction” value in the data set with 4T1 cells [1] is reported as “ICD inducer”.
